Biological target: T1, USP28 (USP28-5(1-1077)-TEV-6*His; LifeSensors) (Homo sapiens, UniProt Q96RU2)
T1 construct: construct USP28 (USP28-5(1-1077)-TEV-6*His; LifeSensors); TEV cleavage site (C); 6xHis (C); purchased LifeSensors
T1 sequence (Q96RU2 1-1077): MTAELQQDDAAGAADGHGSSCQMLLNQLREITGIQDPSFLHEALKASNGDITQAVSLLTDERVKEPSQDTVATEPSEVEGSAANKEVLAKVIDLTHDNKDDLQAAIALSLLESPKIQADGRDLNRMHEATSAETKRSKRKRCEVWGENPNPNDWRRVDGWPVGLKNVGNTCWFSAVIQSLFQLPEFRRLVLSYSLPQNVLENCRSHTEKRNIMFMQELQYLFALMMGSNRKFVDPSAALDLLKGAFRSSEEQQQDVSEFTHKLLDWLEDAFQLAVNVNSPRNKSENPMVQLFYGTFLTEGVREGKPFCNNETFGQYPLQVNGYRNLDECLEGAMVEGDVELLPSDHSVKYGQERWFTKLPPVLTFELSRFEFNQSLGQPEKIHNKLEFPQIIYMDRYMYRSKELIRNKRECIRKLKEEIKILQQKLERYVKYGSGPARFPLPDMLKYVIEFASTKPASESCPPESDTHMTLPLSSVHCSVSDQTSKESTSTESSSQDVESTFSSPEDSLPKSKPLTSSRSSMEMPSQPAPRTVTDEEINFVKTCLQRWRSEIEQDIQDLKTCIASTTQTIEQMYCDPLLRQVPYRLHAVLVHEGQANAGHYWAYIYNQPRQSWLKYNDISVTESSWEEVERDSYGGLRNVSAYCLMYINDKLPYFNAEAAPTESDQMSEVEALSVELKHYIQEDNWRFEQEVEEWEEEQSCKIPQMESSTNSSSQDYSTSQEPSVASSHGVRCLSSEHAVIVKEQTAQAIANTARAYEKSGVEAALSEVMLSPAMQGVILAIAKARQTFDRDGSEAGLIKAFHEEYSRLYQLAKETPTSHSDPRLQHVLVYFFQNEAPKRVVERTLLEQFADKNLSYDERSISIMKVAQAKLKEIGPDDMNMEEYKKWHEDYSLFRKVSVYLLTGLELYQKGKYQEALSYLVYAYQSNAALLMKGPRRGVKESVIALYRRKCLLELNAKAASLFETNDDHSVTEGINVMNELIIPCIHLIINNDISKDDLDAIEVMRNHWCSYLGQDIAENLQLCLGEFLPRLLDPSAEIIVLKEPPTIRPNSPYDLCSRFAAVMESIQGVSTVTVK
Test: Ubiquitin-Rhodamine 110 Assay for USP28 Activity, Example A-1(b)
Format: biochemical
Settings: Ub-Rh110 assay, Example A-1(b)
Summary of the method: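 Single-point screening used 10 μM compound with 90 min room-temperature incubation; follow-up dose-responses (25 μM top, 3-fold) used 75 pM USP28 1-1077 construct, 30 min compound preincubation, 25 nM Ub-Rh110, 20 min reaction, citric acid quench. Rh110 fluorescence normalised to no-enzyme and DMSO controls; IC50 from 4-parameter logistic fit.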

## Cc1cnc2c(N)c(C(=O)N[C@@H]3CCc4cc(N5CCNCC5)c(C)cc4C3)sc2n1 (single isomer, unassigned) [Example 2-35]
  USP28 A-1(b) IC50 range: + (>2 μM)

## Cc1cnc2c(N)c(C(=O)N[C@H]3CCc4c(ccc(N5CCNCC5)c4C)C3)sc2n1 (single isomer, unassigned) [Example 2-36]
  USP28 A-1(b) IC50 range: + (>2 μM)

## Cc1cnc2c(N)c(C(=O)N[C@@H]3CCc4c(ccc(N5CCNCC5)c4C)C3)sc2n1 (single isomer, unassigned) [Example 2-37]
  USP28 A-1(b) IC50 range: +++ (0.05-0.2 μM)

## Cc1ccc2c(N)c(C(=O)N[C@H]3COc4cc(N5CCC[C@@](N)(C(F)(F)F)C5)ccc4C3)sc2n1 (single isomer, unassigned) [Example 3-3]
  USP28 A-1(b) IC50 range: ++++ (0.001-0.05 μM)

## Cc1ccc2c(N)c(C(=O)N[C@H]3COc4cc(N5CCC[C@](N)(C(F)(F)F)C5)ccc4C3)sc2n1 (single isomer, unassigned) [Example 3-4]
  USP28 A-1(b) IC50 range: +++ (0.05-0.2 μM)

## Cc1nc2sc(C(=O)N[C@H]3COc4cc(N5CC6CCC(C5)N6)ccc4C3)c(N)c2s1 [Example 1-23, N-((3R)-7-(3,8-diazabicyclo[3.2.1]octan-3-yl)chroman-3-yl)-6-amino-2-methylthieno[2,3-d]thiazole-5-carboxamide]
  USP28 A-1(b) IC50 range: ++ (0.2-2 μM)

## Cc1nc2sc(C(=O)N[C@@H]3COc4cc(N5CC6CCC(C5)N6)ccc4C3)c(N)c2s1 [Example 1-24, N-((3S)-7-(3,8-diazabicyclo[3.2.1]octan-3-yl)chroman-3-yl)-6-amino-2-methylthieno[2,3-d]thiazole-5-carboxamide]
  USP28 A-1(b) IC50 range: + (>2 μM)

## Cc1nc2sc(C(=O)N[C@H]3COc4cc(N5CCNCC5)ccc4C3)c(N)c2s1 [Example 1-25, (R)-6-amino-2-methyl-N-(7-(piperazin-1-yl)chroman-3-yl)thieno[2,3-d]thiazole-5-carboxamide]
  USP28 A-1(b) IC50 range: ++ (0.2-2 μM)

## Cc1nc2sc(C(=O)N[C@@H]3COc4cc(N5CCNCC5)ccc4C3)c(N)c2s1 [Example 1-26, (S)-6-amino-2-methyl-N-(7-(piperazin-1-yl)chroman-3-yl)thieno[2,3-d]thiazole-5-carboxamide]
  USP28 A-1(b) IC50 range: + (>2 μM)

## Cc1ccc2c(N)c(C(=O)N[C@H]3COc4c(ccc(N5CCNCC5)c4F)C3)sc2n1 [Example 1-33, (R)-3-amino-N-(8-fluoro-7-(piperazin-1-yl)chroman-3-yl)-6-methylthieno[2,3-b]pyridine-2-carboxamide]
  USP28 A-1(b) IC50 range: +++ (0.05-0.2 μM)

## Cc1ccc2c(N)c(C(=O)N[C@@H]3COc4c(ccc(N5CCNCC5)c4F)C3)sc2n1 [Example 1-34, (S)-3-amino-N-(8-fluoro-7-(piperazin-1-yl)chroman-3-yl)-6-methylthieno[2,3-b]pyridine-2-carboxamide]
  USP28 A-1(b) IC50 range: + (>2 μM)

## Cc1ccc2c(N)c(C(=O)N[C@H]3COc4cc(N5CCNCC5)c(F)cc4C3)sc2n1 [Example 1-35, (R)-3-amino-N-(6-fluoro-7-(piperazin-1-yl)chroman-3-yl)-6-methylthieno[2,3-b]pyridine-2-carboxamide]
  USP28 A-1(b) IC50 range: +++ (0.05-0.2 μM)

## Cc1ccc2c(N)c(C(=O)N[C@@H]3COc4cc(N5CCNCC5)c(F)cc4C3)sc2n1 [Example 1-36, (S)-3-amino-N-(6-fluoro-7-(piperazin-1-yl)chroman-3-yl)-6-methylthieno[2,3-b]pyridine-2-carboxamide]
  USP28 A-1(b) IC50 range: + (>2 μM)

## Cc1ccc2c(N)c(C(=O)N[C@H]3COc4cc(N5CC6CNCC(C5)C6(F)F)ccc4C3)sc2n1 [Example 2-1, 3-Amino-N-((3R)-7-(9,9-difluoro-3,7-diazabicyclo[3.3.1]nonan-3-yl)chroman-3-yl)-6-methylthieno[2,3-b]pyridine-2-carboxamide]
  USP28 A-1(b) IC50 range: ++++ (0.001-0.05 μM)

## Cc1ccc2c(N)c(C(=O)N[C@H]3COc4cc(N5CC6CC(C5)N6)ccc4C3)sc2n1 [Example 2-2, N-((3R)-7-(3,6-diazabicyclo[3.1.1]heptan-3-yl)chroman-3-yl)-3-amino-6-methylthieno[2,3-b]pyridine-2-carboxamide]
  USP28 A-1(b) IC50 range: +++ (0.05-0.2 μM)

## Cc1ccc2c(N)c(C(=O)N[C@@H]3COc4cc(N5CC6CC(C5)N6)ccc4C3)sc2n1 [Example 2-3, N-((3S)-7-(3,6-diazabicyclo[3.1.1]heptan-3-yl)chroman-3-yl)-3-amino-6-methylthieno[2,3-b]pyridine-2-carboxamide]
  USP28 A-1(b) IC50 range: + (>2 μM)

## Cc1ccc2c(N)c(C(=O)N[C@H]3COc4cc(N5CCNC[C@@H]5C)ccc4C3)sc2n1 [Example 2-4, 3-amino-6-methyl-N-((R)-7-((S)-2-methylpiperazin-1-yl)chroman-3-yl)thieno[2,3-b]pyridine-2-carboxamide]
  USP28 A-1(b) IC50 range: ++++ (0.001-0.05 μM)

## Cc1ccc2c(N)c(C(=O)N[C@H]3COc4cc(N5CCNC[C@H]5C)ccc4C3)sc2n1 [Example 2-5, 3-amino-6-methyl-N-((R)-7-((R)-2-methylpiperazin-1-yl)chroman-3-yl)thieno[2,3-b]pyridine-2-carboxamide]
  USP28 A-1(b) IC50 range: ++++ (0.001-0.05 μM)

## Cc1ccc2c(N)c(C(=O)N[C@H]3COc4cc(N5C6CCC5CNC6)ccc4C3)sc2n1 [Example 2-6, N-((3R)-7-(3,8-diazabicyclo[3.2.1]octan-8-yl)chroman-3-yl)-3-amino-6-methylthieno[2,3-b]pyridine-2-carboxamide]
  USP28 A-1(b) IC50 range: +++ (0.05-0.2 μM)

## Cc1ccc2c(N)c(C(=O)N[C@H]3COc4cc(N5CCCC56CNC6)ccc4C3)sc2n1 [Example 2-7, (R)-N-(7-(2,5-diazaspiro[3.4]octan-5-yl)chroman-3-yl)-3-amino-6-methylthieno[2,3-b]pyridine-2-carboxamide]
  USP28 A-1(b) IC50 range: +++ (0.05-0.2 μM)

## Cc1ccc2c(N)c(C(=O)N[C@H]3COc4cc(N5CCN[C@@H](C)C5)ccc4C3)sc2n1 [Example 2-8, 3-amino-6-methyl-N-((R)-7-((S)-3-methylpiperazin-1-yl)chroman-3-yl)thieno[2,3-b]pyridine-2-carboxamide]
  USP28 A-1(b) IC50 range: ++ (0.2-2 μM)

## Cc1ccc2c(N)c(C(=O)N[C@H]3COc4cc(N5CCN[C@H](C)C5)ccc4C3)sc2n1 [Example 2-9, 3-amino-6-methyl-N-((R)-7-((R)-3-methylpiperazin-1-yl)chroman-3-yl)thieno[2,3-b]pyridine-2-carboxamide]
  USP28 A-1(b) IC50 range: ++ (0.2-2 μM)

## Cc1ccc2c(N)c(C(=O)N[C@H]3COc4cc(N5CCNCC56COC6)ccc4C3)sc2n1 [Example 2-10]
  USP28 A-1(b) IC50 range: +++ (0.05-0.2 μM)

## Cc1cnc2c(N)c(C(=O)N[C@H]3COc4cc(N5CC6CC(C5)N6)ccc4C3)sc2n1 [Example 2-11, N-((3R)-7-(3,6-diazabicyclo[3.1.1]heptan-3-yl)chroman-3-yl)-7-amino-3-methylthieno[2,3-b]pyrazine-6-carboxamide]
  USP28 A-1(b) IC50 range: ++ (0.2-2 μM)

## Cc1cnc2c(N)c(C(=O)N[C@H]3COc4cc(N5CC6COCC(C5)N6)ccc4C3)sc2n1 [Example 2-12, N-((3R)-7-(3-oxa-7,9-diazabicyclo[3.3.1]nonan-7-yl)chroman-3-yl)-7-amino-3-methylthieno[2,3-b]pyrazine-6-carboxamide]
  USP28 A-1(b) IC50 range: ++ (0.2-2 μM)

## Cc1cnc2c(N)c(C(=O)N[C@H]3COc4cc(N5CC6CNCC(C5)O6)ccc4C3)sc2n1 [Example 2-13, N-((3R)-7-(9-oxa-3,7-diazabicyclo[3.3.1]nonan-3-yl)chroman-3-yl)-7-amino-3-methylthieno[2,3-b]pyrazine-6-carboxamide]
  USP28 A-1(b) IC50 range: ++ (0.2-2 μM)

## COc1nc2sc(C(=O)N[C@H]3COc4cc(N5CCNCC5)ccc4C3)c(N)c2cc1F [Example 2-16, (R)-3-amino-5-fluoro-6-methoxy-N-(7-(piperazin-1-yl)chroman-3-yl)thieno[2,3-b]pyridine-2-carboxamide]
  USP28 A-1(b) IC50 range: ++ (0.2-2 μM)

## Cc1cc(C)c2c(N)c(C(=O)N[C@H]3COc4cc(N5CCNCC5)ccc4C3)sc2n1 [Example 2-17, (R)-3-amino-4,6-dimethyl-N-(7-(piperazin-1-yl)chroman-3-yl)thieno[2,3-b]pyridine-2-carboxamide]
  USP28 A-1(b) IC50 range: +++ (0.05-0.2 μM)

Source: patent US11524966B1 (Valo Early Discovery, Inc., priority 2017, dated 2022)
